Test results: US20200390755A1, “COMPOUND FOR TREATING NERVOUS SYSTEM DISEASES AND USE THEREOF” (SHAANXI MICOT TECHNOLOGY CO., LTD., priority 2018, published 2020)

System: Phospho-Akt S473
Experiment: ELISA analysis of Phospho-Akt S473 in primary cortical neuron cells
Format: cell-based, mouse
Details: 500 nM, 10 min at 37° C.
Method: The primary cortical neuron cells were cultured in the same way as in Example 21, and after maturity, appropriate amount of freshly prepared culture medium was added until final volume in each well was 2 mL. The experiment included a blank control group (Vehicle), a positive control group BDNF (10 ng/mL), a control compound group (500 nM), and 6 test compound groups (500 nM). Three repeats were set for each dose. After incubating at 37° C. for 10 min, the culture solution was discarded and the cells were washed with pre-chilled PBS, and then 40 μL of pre-chilled lysate (RIPA buffer 10 mL and protease and phosphatase inhibitor 100 μL) was added to each well for lysis on ice for 30 min. After lysis, the cell was crushed by ultrasonic cell crusher, centrifuged at 14000 rpm for 20 min at 4° C. The supernatant was transferred to a new 1.5 mL centrifuge tube to extract protein. The p-Akt ELISA experiment quantitatively detected the intracellular p-Akt protein level.
A series of p-Akt standard solutions with different concentrations were prepared, and the absorbance value was measured to make a standard curve. Phospho-Akt1 (Ser473) sandwich ELISA kit was purchased from Cell Signaling Technology (catalog number 7160). The antibody was coated in a 96-well plate at 4° C. overnight and was washed. The coated plate was blocked with 2% bovine serum albumin (BSA), and after sufficient washing, 100 μL of sample diluent (supplied in the kit) was added to each well to dilute the extracted protein. The plate was incubated overnight at 4° C. After washing 4 times with 200 μL of washing buffer (supplied in the kit), 100 μL/well of detection antibody was added and the plate was incubated at 37° C. for 1 hour. After 4 washes, 100 μL of HRP-conjugated secondary antibody (supplied in the kit) was added and the plate was incubated at 37° C. for 30 minutes. After the final wash, 100 μL of TMB substrate was added to each well and the plate was incubated at 37° C. for 10 minutes. TMB was use as a substrate to detect the signal, since TMB can be oxidized to produce a blue solution. The reaction was stopped by adding 100 μL/well stop solution, and the test result can remain stable within one hour after the stop of the reaction. The value of each well at 450 nm and 650 nm was detected using a microplate reader. The optical density (OD) was determined by subtracting the reading at 650 nm (disturbance from the solution itself) from the reading at 450 nm. According to the OD value corresponding to the standard curve, the p-Akt concentration in each well was obtained.
the data of each group was expressed as mean standard error (x±SEM). The ratio of the detection results of each positive control group (BNDF), control compound group (the same control compound as in Example 21) and each test compound group to the blank control group was used as an indicator to compare the p-Akt test results of the positive control group, control compound group, and each test compound group. One-way ANOVA and LSD post-hoc test were used to compare the measurement data among multiple groups, and P<0.05 was considered statistically significant.

SMILES	Relative content of p-Akt protein (ELISA, ratio to blank control group) [%]
O=c1cc(-c2ccc(N3CCCCC3)cc2)oc2c(O)c(O)ccc12 [Example 1, 7,8-dihydroxy-2-(4-(piperidin-1-yl)phenyl)-4H-chromen-4-one]	212.00±2.122
COc1ccc2c(=O)cc(-c3ccc(N4CCCCC4)cc3)oc2c1OC [Example 2, 7,8-dimethoxy-2-(4-(piperidin-1-yl)phenyl)-4H-chromen-4-one]	221.67±3.69

System: rats with permanent cerebral ischemia
Experiment: Neurobehavioral scoring in rats with permanent cerebral ischemia (MCAO thread plug)
Format: in vivo, SD rats
Details: 20 mg/kg by gavage, 6 h after ischemia
Method: (§1) SD rats, male, about 220-250 g, were provided by the Experimental Animal Center of Medical College of Xi'an Jiaotong University. Rats were randomly divided into groups of 14 animals/group. The experiment included a sham group, a model group, a positive control Edaravone group and test compound groups 1-5.12 hours before the operation, the rats were fasted and were free to drink water, and then used for the modeling method of middle cerebral artery occlusion with thread plug. The rats were fixed on a wooden board after anesthesia, the common carotid artery was ligated proximally, the external carotid artery was ligated distally, and the main internal carotid artery into skull was retained. A ligature line was reserved at the bifurcation of the internal carotid artery for temporarily clamping the distal end of the internal carotid artery using an arterial clip. A 3-0 nylon thread with a length of 5 cm and a spherical shape with a diameter of 0.3 mm at the tip was inserted into the common carotid artery through a small incision at the bifurcation. The arterial clamp was loosened, and the thread plug was slowly advanced to 18˜20 mm. When there was resistance, the progress of the thread was stopped. At this time, the nylon thread plug entered the middle artery and blocked the blood flow, and then the ischemic phase began. The skin was sutured. In the sham operation group, the same procedure was executed, except that no thread plug was inserted.
(§2) Administering was performed at 0 h, 3 h, 6 h and 12 h after ischemia, and then administering was performed once a day for 7 consecutive days. The test compound was prepared into a 4 mg/mL solution with 1% CMC-Na solution and administered by gavage. The edaravone group received an intravenous dose of 0.078 mg/kg.
2) The rats were lifted at its tail about 1 foot off the ground to observe the condition of both forelimbs. The rats were placed on a level ground and pushed on both shoulders to observe the difference in resistance on both sides. The rats were placed on the ground to observe the walking. The assessment was conducted using a five-grade four-point scoring method (0 to 4 points). The higher the score, the more severe the neurobehavioral damage.
0 point: the behavior is completely normal;
1 point: when the rat is lifted at its tail off the ground, the forelimb on the opposite side of the operation rotates and folds inwardly.
2 points: when the rat is placed on a level ground and pushed on both shoulders to observe the difference in resistance on both sides, the resistance on the opposite side of the operation reduces;
3 points: when the rat is placed on the ground to the walking, it circles around the opposite side of the operation;
4 points: The injury is so severe that the rat is unable to move independently.
(§3) (2) Statistical analysis of data: SPSS18.0 statistical software was used for statistical analysis and the data of each group was expressed as the mean standard error (x±SEM). One-way ANOVA and multiple comparisons between groups were used to compare the averages of measurement data among multiple groups. Rank score test was used for behavioral grading data, and Kaplan-Meier method was used for mortality. P<0.05 was considered statistically significant.

SMILES	Neurobehavioral score (0 to 4 points)
O=c1cc(-c2ccc(N3CCCCC3)cc2)oc2c(O)c(O)ccc12 [Example 1, 7,8-dihydroxy-2-(4-(piperidin-1-yl)phenyl)-4H-chromen-4-one]	2.07 ± 0.22
COc1ccc2c(=O)cc(-c3ccc(N4CCCCC4)cc3)oc2c1OC [Example 2, 7,8-dimethoxy-2-(4-(piperidin-1-yl)phenyl)-4H-chromen-4-one]	2.13 ± 0.17

Same assay, conditions: 20 mg/kg by gavage, 1 d after ischemia

SMILES	Neurobehavioral score (0 to 4 points)
O=c1cc(-c2ccc(N3CCCCC3)cc2)oc2c(O)c(O)ccc12 [Example 1, 7,8-dihydroxy-2-(4-(piperidin-1-yl)phenyl)-4H-chromen-4-one]	2.11 ± 0.2
COc1ccc2c(=O)cc(-c3ccc(N4CCCCC4)cc3)oc2c1OC [Example 2, 7,8-dimethoxy-2-(4-(piperidin-1-yl)phenyl)-4H-chromen-4-one]	2.04 ± 0.13

Same assay, conditions: 20 mg/kg by gavage, 2 d after ischemia

SMILES	Neurobehavioral score (0 to 4 points)
O=c1cc(-c2ccc(N3CCCCC3)cc2)oc2c(O)c(O)ccc12 [Example 1, 7,8-dihydroxy-2-(4-(piperidin-1-yl)phenyl)-4H-chromen-4-one]	1.88 ± 0.35
COc1ccc2c(=O)cc(-c3ccc(N4CCCCC4)cc3)oc2c1OC [Example 2, 7,8-dimethoxy-2-(4-(piperidin-1-yl)phenyl)-4H-chromen-4-one]	2.20 ± 0.25

Same assay, conditions: 20 mg/kg by gavage, 3 d after ischemia

SMILES	Neurobehavioral score (0 to 4 points)
O=c1cc(-c2ccc(N3CCCCC3)cc2)oc2c(O)c(O)ccc12 [Example 1, 7,8-dihydroxy-2-(4-(piperidin-1-yl)phenyl)-4H-chromen-4-one]	2.13 ± 0.23
COc1ccc2c(=O)cc(-c3ccc(N4CCCCC4)cc3)oc2c1OC [Example 2, 7,8-dimethoxy-2-(4-(piperidin-1-yl)phenyl)-4H-chromen-4-one]	1.98 ± 0.45

Same assay, conditions: 20 mg/kg by gavage, 4 d after ischemia

SMILES	Neurobehavioral score (0 to 4 points)
O=c1cc(-c2ccc(N3CCCCC3)cc2)oc2c(O)c(O)ccc12 [Example 1, 7,8-dihydroxy-2-(4-(piperidin-1-yl)phenyl)-4H-chromen-4-one]	1.88 ± 0.35
COc1ccc2c(=O)cc(-c3ccc(N4CCCCC4)cc3)oc2c1OC [Example 2, 7,8-dimethoxy-2-(4-(piperidin-1-yl)phenyl)-4H-chromen-4-one]	1.87 ± 0.27

Same assay, conditions: 20 mg/kg by gavage, 5 d after ischemia

SMILES	Neurobehavioral score (0 to 4 points)
O=c1cc(-c2ccc(N3CCCCC3)cc2)oc2c(O)c(O)ccc12 [Example 1, 7,8-dihydroxy-2-(4-(piperidin-1-yl)phenyl)-4H-chromen-4-one]	2 ± 0.38
COc1ccc2c(=O)cc(-c3ccc(N4CCCCC4)cc3)oc2c1OC [Example 2, 7,8-dimethoxy-2-(4-(piperidin-1-yl)phenyl)-4H-chromen-4-one]	2.11 ± 0.16

Same assay, conditions: 20 mg/kg by gavage, 6 d after ischemia

SMILES	Neurobehavioral score (0 to 4 points)
O=c1cc(-c2ccc(N3CCCCC3)cc2)oc2c(O)c(O)ccc12 [Example 1, 7,8-dihydroxy-2-(4-(piperidin-1-yl)phenyl)-4H-chromen-4-one]	1.86 ± 0.34
COc1ccc2c(=O)cc(-c3ccc(N4CCCCC4)cc3)oc2c1OC [Example 2, 7,8-dimethoxy-2-(4-(piperidin-1-yl)phenyl)-4H-chromen-4-one]	1.79 ± 0.28

Same assay, conditions: 20 mg/kg by gavage, 7 d after ischemia

SMILES	Neurobehavioral score (0 to 4 points)
O=c1cc(-c2ccc(N3CCCCC3)cc2)oc2c(O)c(O)ccc12 [Example 1, 7,8-dihydroxy-2-(4-(piperidin-1-yl)phenyl)-4H-chromen-4-one]	1.17 ± 0.17
COc1ccc2c(=O)cc(-c3ccc(N4CCCCC4)cc3)oc2c1OC [Example 2, 7,8-dimethoxy-2-(4-(piperidin-1-yl)phenyl)-4H-chromen-4-one]	1.21 ± 0.22

System: rats with permanent cerebral ischemia
Experiment: Cerebral infarction volume by TTC staining in rats with permanent cerebral ischemia
Format: in vivo, SD rats
Details: 20 mg/kg by gavage, after 7 days of ischemia
Method: as §1, §2
3) Percentage of cerebral infarction volume after 7 days of ischemia: TTC staining was used to observe the infarct area.
The rats in each group were sacrificed by spinal dislocation […]. The brain tissue was quickly peeled off and placed in the refrigerator at −20° C. to freeze to an appropriate hardness to remove the olfactory bulb, cerebellum and low brain stem. Continuous coronary slices were performed at 1 mm intervals, to obtain a total of 5 slices. The slices were placed in 0.5% triphenyltetrazolium chloride (TTC) in phosphate buffer (pH=7.4) and incubated in a 37° C. incubator without light for 15 min, and then fixed in paraformaldehyde and observed (fixed time should be within 24 h). The normal brain tissue is rosy red, and infarcted brain tissue is pale. After taking the picture, the slice was scanned to save the image. The area of cerebral infarction and the total area of slices were calculated using Image J processing software.
Cerebral infarction volume (%)=(volume of the contralateral hemisphere of the operation−volume of the uninfarcted portion of the hemisphere of the occlusion)/volume of the contralateral hemisphere of the operation×100%
as §3

SMILES	Volume percentage of cerebral infarction [%]
O=c1cc(-c2ccc(N3CCCCC3)cc2)oc2c(O)c(O)ccc12 [Example 1, 7,8-dihydroxy-2-(4-(piperidin-1-yl)phenyl)-4H-chromen-4-one]	19.58 ± 9.56
COc1ccc2c(=O)cc(-c3ccc(N4CCCCC4)cc3)oc2c1OC [Example 2, 7,8-dimethoxy-2-(4-(piperidin-1-yl)phenyl)-4H-chromen-4-one]	19.93 ± 8.89
